Experiments:
Format in all cases: in vivo, human
cancer patients [1] = assay: Composite desire for hastened death (DHD) score (5 loss-of-meaning items of the Demoralization Scale), crossover trial with psychotherapy; conditions: for DHD within-subjects reduction relative to baseline: combined groups
Experimental: (§1) 29 participants were randomly assigned to one of two groups: psilocybin (0.3 mg/kg) on the first medication session followed by niacin (250 mg) on the second session (i.e. psilocybin-first group), or niacin (250 mg) on the first medication session followed by psilocybin (0.3 mg/kg) on the second session (i.e. niacin-first group). Psilocybin and niacin were administered in identically appearing gelatin capsules.
(§2) Participants received three 2-hour preparatory psychotherapy sessions in order to review the purpose and intention of participation in the study, treatment goals, and structure of the treatment sessions. Medications were administered in 8-hour treatment sessions which included a discussion of the participant's subjective experience with the treatment team to consolidate the memory of the experience and to begin the process of post-integrative psychotherapy. Participants also received three 2-hour post-medication integration sessions (repeated after the second dosing session) to further consolidate the memory of the experience and to continue the process of psychological integration. All psychotherapy treatment sessions were delivered by a dyadic therapy team trained in a blend of psychotherapies with an evidence base to support their use in cancer patients (drawing upon principles of palliative care therapy, existential psychotherapy, cognitive-behavioural therapy, psychoanalysis therapy, and transpersonal psychology) and were taught about the safety and clinical pharmacology of psilocybin. Each therapy dyad underwent six confidential one-to-one sessions to build their alliance and exchange ideas about psychedelic therapy. The trial employed a crossover design at seven weeks following the first drug administration, with an outcome assessment at 6.5 months (26 weeks) following the second drug administration (i.e. after the crossover).
(§3) Two long-term follow ups (LTFUs) were carried out to assess the continued effect of psilocybin.
(§4) Primary outcomes (suicidal ideation and desire for hastened death) were measured according to the following methods: • Beck Depression Inventory-II (BDI-II) (Beck et al., 1988)— this is a widely used self-report measure to assess depression. The BDI-II comprises 21 questions related to depressive symptoms experienced over the previous two weeks, and is rated on a […] (total score ranges from 0-63). Scores greater than 12 correlate with clinical depression. […] Item #9 on the BDI queries suicidal ideation with the following options: 0=I don't have any thoughts of killing myself; 1=I have thoughts of killing myself, but I would not carry them out; 2=I would like to kill myself; 3=I would kill myself if I had the chance. The BDI-II was assessed at baseline, 1-day prior to dose-1, 8-hours after dose-1, 1-day after dose-1, 2-weeks after dose-1, 6-weeks after dose-1, 7-weeks after dose-1 (corresponding to 1-day prior to dose-2), 1-day after dose-2, 6-weeks after dose-2, 26-weeks after dose-2, and at the 3.2 year and 4.5 year LTFU assessments. • The Brief Symptom Inventory (BSI) (Derogatis 1993) is a 53-item self-report questionnaire that assesses a range of psychiatric symptoms, generating 9 domains (depression, anxiety, phobic anxiety, somatization, obsession-compulsion, interpersonal sensitivity, hostility, paranoid ideation, psychoticism) and a global severity index.

cancer patients [2] = assay: Composite suicidal ideation (SI) score (BDI-II item #9 + BSI item #9, T-scores), crossover trial with psychotherapy; conditions: for Composite SI within-subject effect size relative to baseline, Cohen's d: psilocybin-1st group
Experimental: as §1, §2, §3, §4

cancer patients [3] = assay: Primary outcomes DHD and SI taken together: within-subject effect sizes across measures and time points
Experimental: as §1
Participants received three 2-hour preparatory psychotherapy sessions in order to review the purpose and intention of participation in the study, treatment goals, and structure of the treatment sessions. Medications were administered in 8-hour treatment sessions which included a discussion of the participant's subjective experience with the treatment team to consolidate the memory of the experience and to begin the process of post-integrative psychotherapy. […]
Primary outcomes (suicidal ideation and desire for hastened death) were measured according to the following methods: • Beck Depression Inventory-II (BDI-II) (Beck et al., 1988)— this is a widely used self-report measure to assess depression. […] It is measured on a Likert scale: 0=Not at all; 1=Little, 2=Moderately; 3=Quite a bit; 4=Extremely. […]

[4] = after crossover, both dose-sequence groups combined, 6.5-month follow-up, p<0.001

| SMILES | Composite DHD score, main effect of time within group (cancer patients [1]; niacin-1st group (250 mg), prior to the crossover, p=0.079, n=5) | Composite suicidality/SI score, main effect of time within group (cancer patients [2]; niacin-1st group (250 mg), prior to the crossover, p=0.065, n=5) | DHD mean score relative to baseline, within psilocybin-1st group (cancer patients [1]; 2-weeks post dose-1, pre-crossover, p=0.005, n=6) | DHD between-group difference, psilocybin-1st vs niacin-1st, Cohen's d (cancer patients [1]; 2-weeks post dose-1, pre-crossover, psilocybin 0.3 mg/kg single dose, n=6 vs n=5) | DHD within-subjects change relative to baseline (cancer patients [1]; [4]) | DHD within-subjects reduction relative to baseline (cancer patients [1]; after crossover, 3.2-year follow-up, p<0.001) | DHD within-subjects reduction relative to baseline (cancer patients [1]; after crossover, 4.5-year follow-up, p<0.001) | Composite SI within-subjects change relative to baseline (cancer patients [2]; [4]) | Composite SI, between-group comparison psilocybin-1st vs niacin-1st (cancer patients [2]; prior to the crossover, psilocybin 0.3 mg/kg, interaction p=0.065, group p=0.614) | Composite SI within-subject effect size relative to baseline, Cohen's d (cancer patients [2]; 2-weeks post-dose 1, p<0.001) | Composite SI within-subject effect size relative to baseline, Cohen's d (cancer patients [2]; 7-weeks post-dose 1, p<0.001) | Composite SI within-subject effect size relative to baseline, Cohen's d (cancer patients [2]; 8-hours post-dose 1, p<0.001) | Within-subjects effect sizes across DHD and SI and time points, Cohen's d range (cancer patients [3]; after crossover, combined groups, 6.5 months to 4.5 years) | Within-subject effect sizes across DHD and SI and time points, Cohen's d range (cancer patients [3]; psilocybin-1st group, pre-crossover, statistically significant reductions) |
| --- | --- | --- | --- | --- | --- | --- | --- | --- | --- | --- | --- | --- | --- | --- |
| O=C(O)c1cccnc1 [niacin] | no significant main effect of time | no significant main effect of time | – | – | – | – | – | – | – | – | – | – | – | – |
| CN(C)CCc1c[nH]c2cccc(OP(=O)(O)O)c12 [psilocybin, [3-(2-dimethylaminoethyl)-1H-indol-4-yl] dihydrogen phosphate] | – | – | differed significantly | 1.32 | statistically significant within-subjects reductions | remained significant | remained significant | statistically significant within-subjects reductions | no significant differences between the two groups | 2.40 | 3.50 | 2.40 | 1.51-2.56 | 1.20-3.50 |

Source: patent US20240075009A1, “TREATMENT OF S[…] PSILOCIN OR PSILOCYBIN” (NEW YORK UNIVERSITY, priority 2021, published 2024)
